Four molecules from patent US20250092003A1, “LIPID COMPOUND, COMPOSITION CONTAINING SAME AND USE” (SOUTH CHINA UNIVERSITY OF TECHNOLOGY, priority 2022, published 2025) can be followed below.

Assay [1] concerns melanoma (B16F10-Luc) cell line capable of stably expressing firefly luciferase (Luc). The experiment in a line: siLuc transfection by lipid nanoparticles into B16F10-Luc cells, firefly luciferase expression. The class given is cell-based. The conditions noted are these: for siLuc transfection efficiency: lipid nanoparticles (lipid compound:DSPC:cholesterol:DSPE-PEG 38:10:50:2), siRNA 50 ng/well, N/P ratios 4:1, 8:1 and 16:1, 24 h after transfection.
Description: B16F10-Luc cells were inoculated into a 96-well cell culture plate. On the next day, transfection was performed when the cells grew to about 80%.
The mother solutions were stored in a refrigerator at −20° C., diluted as needed during use, and then mixed at a molar ratio of 38:10:50:2 (lipid compounds:DSPC:cholesterol:DSPE-PEG). The siLuc was dissolved in a citrate buffer solution (pH-4), where a volume of the citrate buffer solution was two times the volume of an ethanol-lipid mixture obtained above. Finally, the citrate buffer solution containing siLuc (pH=4) and the ethanol-lipid mixture were quickly and fully mixed and then shaken and incubated at room temperature for 30 min for self-assembly to form lipid nanoparticles. The assembled lipid nanoparticles were added to the 96-well cell culture plate containing the B16F10-Luc for transfection, respectively. Before the transfection, a culture solution in the culture plate was sucked out, and 80 μL of a new culture medium was added, where an added amount of the siRNA was 50 ng/well. Nitrogen-phosphorus ratios (N/P ratio) of the protonable lipid compounds to the siRNA were 4:1, 8:1 and 16:1, respectively.
Positive control group: The siLuc was transfected by Lipo2000, a commercial transfection reagent. Transfection was performed according to an operating instruction of the Lipo2000. 50 ng of the siLuc was added to 5 μL of Opti-MEM, and 0.3 μL of the Lipo2000 was added to another 50 μL of Opti-MEM. Finally, an siRNA Opti-MEM solution was added to a Lipo2000 Opti-MEM solution, evenly mixed, incubated at room temperature for 15 min, and then added to a 96-well cell culture plate. Before the transfection, a culture solution in the culture plate was sucked out, and 80 μL of a new culture medium was added, where an added amount of the siRNA was 50 ng/well.
Negative control group: Only the B16F10-Luc cells were used without transfection.
After the transfection was performed for 24 h, the cells were lysed and subjected to centrifugation to remove cell debris and contents, a supernatant was taken, a firefly luciferase substrate was added, and an expression amount of firefly luciferase was determined so as to compare the siLuc transfection efficiency of the synthesized lipid compounds.
The mother solutions were stored in a refrigerator at −20° C., diluted as needed during use, and then mixed at a molar ratio of 38:10:50:2 (lipid compounds:DSPC:cholesterol:DSPE-PEG). The siLuc was dissolved in a citrate buffer solution (pH=4), where a volume of the citrate buffer solution was two times the volume of an ethanol-lipid mixture obtained above. […]

In assay [2] the test system is 293T cell line. Briefly: plasmid DNA (pDNA-GFP-Luc) transfection by lipid nanoparticles into 293T cells. The conditions noted are these: pDNA-GFP-Luc 80 ng/well, N/P ratios 8:1, 16:1 and 32:1, 48 h after transfection. The class given is cell-based.

With `CCCCCCCCCCCC(=O)OCC(O)CN(CCN(CCN(CC(O)COC(=O)CCCCCCCCCCC)CC(O)COC(=O)CCCCCCCCCCC)CCN(CC(O)COC(=O)CCCCCCCCCCC)CC(O)COC(=O)CCCCCCCCCCC)CC(O)COC(=O)CCCCCCCCCCC` (centres unmarked) [A12-C12], in assay [1] (lipid nanoparticles with siLuc, N/P ratios 4:1 to 32:1, 24 h after transfection), the “inhibition of gene expression of the firefly luciferase” value is “almost completely inhibited”. Also, the “plasmid transfection efficiency (firefly luciferase expression) compared with PEI” value in assay [2] is “equivalent to that of the commercial reagent PEI”.

As for `CCCCCCCCCCCC(=O)OCC(O)CN(CCCN1CCCC1)CC(O)COC(=O)CCCCCCCCCCC` (centres unmarked) [A2-C12], the siLuc transfection efficiency result in assay [1] was “about 95%”.

Turning to `CCCCCCCCCCCC(=O)OCC(O)CN(CCCN(C)C)CC(O)COC(=O)CCCCCCCCCCC` (centres unmarked) [A1-C12], in assay [1], the siLuc transfection efficiency entry is recorded as “about 95%”.

With `CCCCCCCCCCCCCCCC(=O)OCC(O)CN(CCCN1CCCC1)CC(O)COC(=O)CCCCCCCCCCCCCCC` (centres unmarked) [A2-C16], the siLuc transfection efficiency entry in assay [1] is listed as “about 95%”.
